Earlier results on one molecule are cited in patent US20150297310A1, “METHODS FOR SELECTING A TREATMENT FOR CANCER” (priority 2014, published 2015).

The test system of the data set is AB1-HA tumor. As to conditions: AB1-HA tumor model, CTX treatment at Day 9.

In the case of `O=P1(N(CCCl)CCCl)NCCCO1` (stereo not shown) [CTX, Cyclophosphamide], the cure rate is on record as 75%.
